In one experiment the target is Rat Parotid Ecto-ATPase. The note with it: Dowd et al.; cited from earlier work.
The target in experiment [1] is Nucleoside Triphosphate Diphosphohydrolases. The note with it: Gendron et al.; cited from earlier work.
In another experiment the target is adenosine transport. The following applies: cited from earlier work; for Ki: adenosine transport inhibitors.
The target in a further experiment is adenosine kinase (Homo sapiens, UniProt P55263). The note with it: cited from earlier work.
Another experiment deals with Ecto-ATPase. The note with it: Chen et al., endothelial cells; cited from earlier work.
Experiment [2] addresses S-adenosylhomocysteine hydrolase (Homo sapiens, UniProt P23526). The note with it: cited from earlier work.
The subject of a further experiment is harmaline-induced tremor. Briefly: Harmaline-induced tremor, intrathalamic delivery by bilateral microdialysis probes. In kind it is in vivo, mice. The following applies: for tremor activity: thalamus; for tremor following washout: after cessation of microdialysis of agonist; for time course of depression of tremor: microdialysis perfusion. As to the method: Harmaline was administed i.p. 20 min prior to DBS (20-30 mg/kg) (Wilms et al., “Animal Models of Tremor,” Mov Disord 14:557-71 (1999); Martin et al., “Harmaline-Induced Tremor as a Potential Preclinical Screening Method for Essential Tremor Medications,” Mov Disord 20:298-305 (2005), which are hereby incorporated by reference in their entirety). 6-OHDA (3 μg/μl in saline containing 0.1% ascorbic acid) was injected in the right median forebrain bundle (AP: −1.2 mm; ML: ±1.1 mm; DV: −5.0 mm in a volume of 2 μl) (Jolicoeur et al., “Hypokinesia, Rigidity, and Tremor Induced by Hypothalamic 6-OHDA Lesions in The Rat,” Brain Res Bull 26:317-20 (1991), which are hereby incorporated by reference in their entirety) in mice anaesthetized with urethane (1.6 g/kg). Only animals that developed body tremor were included in the study. Tacrine was administered in a dose of 2.5 mg/kg i.p. and induced a robust jaw response with the peak frequency within the 3-5 Hz range (Cousins et al., “Tremulous Jaw Movements Induced by The Acetylcholinesterase Inhibitor Tacrine: Effects of Antiparkinsonian Drugs,” Eur J Pharmacol 322:137-45 (1997), which is hereby incorporated by reference in its entirety). […] For electrode and microdialysis implantation, mice were anaesthetized with a mixture of Ketamine (60 mg/kg) and Xylazine (10 mg/kg) and placed into a stereotactic frame. The skull was exposed and concentric bipolar microelectrodes (SNE-100, KOPF) or microdialysis probes (Bioanalytical Systems, Inc.) were implanted into the ventrolateral thalamic nucleus at the following coordinates: AP: −1.4 mm; ML: ±0.9 mm; DV: −3.7 mm. The electrodes or microdialysis probes were attached to the skull with dental cement. Following 24 hrs recovery, stimulation was delivered through a constant isolated current source (An ISO-Flex stimulus isolator with a Master-8-vp stimulator; AMPI) and consisted of monophasic 60 μs square pulses of varying amplitude (15, 25, 50 μA) and frequency (25, 75, 125, 200 Hz). The electrodes implanted in tremor patients has 4 contacts with a total surface area of 0.24 cm^2, an impedance ˜500 Ohm, and an upper limit of 30 μC/cm^2 in charge density (Kuncel et al., “Selection of Stimulus Parameters for Deep Brain Stimulation,” Clin Neurophysiol 115:2431-41 (2004), which is hereby incorporated by reference in its entirety). In mice, electrodes with a smaller tip (diameter 0.0055-0.250 mm, surface area 0.001-0.05 mm^2) were used and the current amplitude was adjusted to obtain charge density within the clinical range. Microdialysis probes were perfused 24 hrs after implantation using a microinjection pump (Harvard Apparatus Inc. USA) at a rate of 2 μl/min. The perfusion buffer contained (in mM): 138 NaCl, 1.5 K2HPO4, 2 CaCl2, 2 MgCl2, 10 HEPES, pH 7.3. […]. Tremor was recorded by either EMG electrodes placed in the occipital muscles or by the Convuls-1 pressure transducer (Columbus Instruments) in awake freely moving animals. […]. The mice were perfusion-fixed and sectioned on a vibratome (TPI) for confirmation of electrode or microdialysis probe placements.
[…]. Microdialysis probes were inserted bilaterally in thalamus 24-48 hrs prior to administration of harmaline. […].

The subject of experiment [3] is thalamic neurons. Briefly: Drug effect on evoked EPSPs (eEPSP) in thalamic slices, current clamp. In kind it is cell-based, mouse. As to the method:
Thalamic slices (300 μm) from 14-18 day old mouse pups (FVB/NJ mice; Jackson Laboratory) were cut on a Vibratome (TPI) in an ice-cold cutting solution containing (in mM): 2.5 KCl, 1.25 NaH2PO4, 10 MgSO4, 5 CaCl2, 10 glucose, 26 NaHCO3, 230 sucrose and gassed with 5% CO2 and 95% O2. Slices were incubated for a minimum of 1 hr in a slice solution containing (in mM): 126 NaCl, 2.5 KCl, 1.25 NaH2PO4, 2 MgCl2, 2 CaCl2, 10 glucose, and 26 NaHCO3, pH 7.4, and gassed with 5% CO2 and 95% O2 at room temperature. The slices were transferred to a recording chamber (1.5 ml) perfused with aCSF at room temperature or 32° C. Whole-cell current clamp recordings were obtained using a 700B Multiclamp amplifier (Axon Instruments) (Jiang et al., “A Kainate Receptor Increases The Efficacy of Gabaergic Synapses,” Neuron 30:503-13 (2001); Tian et al., “An Astrocytic Basis of Epilepsy,” Nat Med 11:973-81 (2005), which are hereby incorporated by reference in their entirety). Concentric bipolar stimulating electrodes (FHC) were placed ˜100-400 μm ventromedial to the patched VL thalamic neuron. Stimulation was delivered through a constant isolated current source (ISO-Flex stimulus isolator with a Master-8-vp stimulator; AMPI) and consisted of monophasic 60 μs square pulses of varying amplitude (15, 25, 50 μA) and frequency (25, 75, 125, 200 Hz). Based upon maximum current amplitude and the surface area of the electrode, it is estimated that the maximum charge density was in the range of ˜1-10 μC/cm^2. The artifacts of the HFS signal were blanked and staggered to allow continuous observation of the 2.5 Hz signal (Anderson et al., “Selective Attenuation of Afferent Synaptic Transmission as a Mechanism of Thalamic Deep Brain Stimulation-Induced Tremor Arrest,” J Neurosci 26:841-50 (2006), which is hereby incorporated by reference in its entirety). Adenosine measurements were detected using needle shaped electrode (Pt/Ir wire) biosensors (Sarissa Biomedical). Calibration was carried out at the beginning and end of each slice experiment in the bath above the slice. Measurements were obtained ˜100 μm from the stimulation electrode in the thalamic slice. […].
To further analyze the role of adenosine in HFS, the effect of perfusion with an aCSF containing 1-100 μM adenosine in thalamic slices was studied. […]. […] The AMPA receptor antagonist, CNQX could not be tested due to its direct effect on EPSCs (Wang et al., “Astrocytic Ca(2+) Signaling Evoked by Sensory Stimulation in Vivo,” Nat Neurosci 9:816-23 (2006), which is hereby incorporated by reference in its entirety) (FIG. 3G). […]. […]

Experiment [4] relates to thalamic neurons. Briefly: HFS-induced membrane depolarization of thalamic neurons. It is filed as cell-based, mouse. The note with it: thalamic slices during HFS.
Experiment [5] concerns thalamic neurons. Briefly: HFS-induced depression of eEPSPs in thalamic slices, pharmacology. In kind it is cell-based, mouse. The note with it: 50 μM; HFS 250 μA, 100 μs, 5 sec, 20° C.

The IC50 is the concentration that inhibits the measured activity by half. The term Ki denotes the dissociation constant of the complex between target and ligand, obtained from inhibition or displacement.

Entries after “also recorded” stand apart in the source; their conditions may differ. Where a name gives a salt, the structure may show the parent alone. Read-outs that look alike come from different tables or passages of the source.

S-adenosylhomocysteine hydrolase, sequence (P23526 whole entry, the tested form may be a part): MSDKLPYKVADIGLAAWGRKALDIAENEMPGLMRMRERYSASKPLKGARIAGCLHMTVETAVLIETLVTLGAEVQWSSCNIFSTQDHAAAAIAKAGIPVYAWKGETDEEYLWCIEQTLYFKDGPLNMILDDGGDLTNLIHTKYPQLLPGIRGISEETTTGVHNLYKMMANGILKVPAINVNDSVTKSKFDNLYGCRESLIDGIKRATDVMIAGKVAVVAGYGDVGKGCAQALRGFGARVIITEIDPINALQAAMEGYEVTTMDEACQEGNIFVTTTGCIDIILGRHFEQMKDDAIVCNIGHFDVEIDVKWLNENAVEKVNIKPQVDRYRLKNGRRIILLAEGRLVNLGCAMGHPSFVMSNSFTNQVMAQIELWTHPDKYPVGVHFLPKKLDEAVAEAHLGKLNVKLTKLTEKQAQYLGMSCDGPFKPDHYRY
adenosine kinase, sequence (P55263 whole entry, species assumed): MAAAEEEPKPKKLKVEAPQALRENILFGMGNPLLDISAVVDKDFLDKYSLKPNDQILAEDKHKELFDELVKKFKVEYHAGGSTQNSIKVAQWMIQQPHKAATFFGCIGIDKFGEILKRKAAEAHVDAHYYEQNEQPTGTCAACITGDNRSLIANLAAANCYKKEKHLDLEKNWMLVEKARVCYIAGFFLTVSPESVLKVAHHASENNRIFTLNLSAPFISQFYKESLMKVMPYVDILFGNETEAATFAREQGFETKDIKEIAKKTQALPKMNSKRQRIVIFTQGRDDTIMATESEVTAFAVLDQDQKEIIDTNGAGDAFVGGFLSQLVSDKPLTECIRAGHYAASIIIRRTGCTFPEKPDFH

With `CCOc1ccc(Nc2ccc(C(=C3C=CC(=[N+](CC)Cc4cccc(S(=O)(=O)[O-])c4)C=C3)c3ccc(N(CC)Cc4cccc(S(=O)(=O)O)c4)cc3)cc2)cc1` [Coomassie brilliant blue R], at Rat Parotid Ecto-ATPase, the IC50 was 114 µM. On to 8-CH2BuS-ATP, for which, in experiment [1], the Ki was 45 µM. On to `CCOc1cc2nc(N3CCOCC3)nc(N3CCC(n4c(=O)c5cc(C)ccc5n(C)c4=O)CC3)c2cc1OCC` [KF 24345, 3-[1-(6,7-diethoxy-2-morpholinoquinazolin-4-yl)piperidin-4-yl]-1,6-dimethyl-2,4(1H,3H)-quinazolinedione hydrochloride], for which the inhibitory constant (Ki) on adenosine transport is 0.0001 to 0.001 µM. As for `Nc1ncnc2c1c(I)cn2[C@@H]1C[C@H](N)[C@@H](O)[C@H]1O` [A-134974], the IC50 at adenosine kinase (McGaraughty et al.) was 60 pM. Consider `Nc1ncnc2c1ncn2[C@@H]1O[C@H](CO[P@](=O)(O)O[P@](=O)(O)O[P@@](=O)(O)S)[C@@H](O)[C@H]1O` [ATPyS], for which the “pIC 50” value at Ecto-ATPase is on record as 5.2.

On to `Nc1ncnc2c1ncn2C[C@@H](O)[C@@H](O)C(=O)O` [DEA, eritadenine[2(R),3(R)-dihydroxy-4-(9-zdenyl)-butyric acid]], for which the inhibitory constant (Ki) in experiment [2] was 0.03 µM. As for `Nc1ncnc2c1ncn2[C@@H]1O[C@H](CO)[C@@H](O)[C@H]1O` [adenosine], the tremor activity entry in the experiment with harmaline-induced tremor (adenosine 1-10 mM in microdialysis perfusate) was “reduced tremor activity with a potency comparable to DBS”. Also, in the experiment with harmaline-induced tremor, the tremor following washout entry was “rebound effect was often observed” and the “time course of depression of tremor” value is recorded as “developed slowly over minutes”. Further, the EC50 with thalamic neurons [3] (Mus musculus, Neuron, aCSF containing 1-100 μM adenosine, read-out: ED50 for depression of eEPSP amplitude) is 3.35 ± 0.75 µM. For the same compound, the “maximal reduction of eEPSP amplitude” value in the experiment on thalamic neurons [3] (aCSF containing 1-100 μM adenosine) is listed as 76.13±6.47 % of control values.

For the compound `Nc1ncnc2c1ncn2[C@@H]1O[C@H](COP(=O)(O)OP(=O)(O)NP(=O)(O)O)[C@@H](O)[C@H]1O` [AMP-PNP], the “pIC 50” value at Ecto-ATPase is 4.0. Turning to `Nc1nccc2c1ncn2C[C@@H](O)[C@@H](O)C(=O)O` [C3-DEA, 3-deaza-DEA], the Ki in experiment [2] (read-out: Ki) was 1.5 µM. `NC(=O)C1CN(CC(=O)Nc2c(Cl)cccc2Cl)CCN1CCCC(c1ccc(F)cc1)c1ccc(F)cc1` (stereo not drawn) [mioflazine]: the Ki on adenosine transport (unit inferred) was 0.01 µM. Regarding `COc1cc(C(=O)OCCCN2CCCN(CCCOC(=O)c3cc(OC)c(OC)c(OC)c3)CC2)cc(OC)c1OC` [dilazep], at adenosine transport, the Ki was 0.0001 to 0.001 µM. With `Nc1ncnc2c1c(Br)cn2C1CC(N)C(O)C1O` (stereo not drawn) [A-286501, N7-((1′R,2′S,3′R,4′S)-2′,3′-dihydroxy-4′-amino-cyclopentyl)-4-amino-5-bromo-pyrrolo[2,3-a]pyrimidine], at adenosine kinase, the IC50 is 470 pM. In the case of `CCCn1cnc2c1c(=O)n(CCCCC(C)=O)c(=O)n2C` [Propentofylline], the inhibitory constant (Ki) on adenosine transport was 10 to 100 µM. As for `COC(=O)C(O)CCn1cnc2c(N)ncnc21` (stereo not drawn) [DZ2002, methyl 4-(adenine-9-yl)-2-hydroxybutanoate], the inhibition constant Ki in [2] (read-out: Ki) is 0.0179 µM. As for `Nc1ncnc2c1ncn2[C@@H]1O/C(=C\F)[C@@H](O)[C@H]1O` [ZDDFA, (Z)-4′,5′-didehydro-5′-deoxy-5′-fluoroadenosine], the inhibition constant Ki in experiment [2] is 0.0399 µM. Turning to `N[C@@H](CCCP(=O)(O)O)C(=O)O` [APV], in the experiment on thalamic neurons [4], the “HFS-induced change of neuronal membrane potential (depolarization / hyperpolarization)” value turned out to be 18.15±6.69 mV. Moreover, the “effect on HFS-induced depression of eEPSPs (FIG. 3G)” value in the experiment on thalamic neurons [5] is “no significant effect”. Turning to `CCCCSc1nc2c(N)ncnc2n1[C@@H]1O[C@H](COP(=O)(O)OP(=O)(O)OP(=O)(O)O)[C@@H](O)[C@H]1O` [8-Bus-ATP], the inhibition constant (Ki) in [1] was 10 µM.

For `Cc1ncc2n1-c1ccc(Cl)cc1C(c1ccccc1F)=NC2` [midazolam], the inhibition constant (Ki) on adenosine transport (unit inferred) is 1 µM.

For the compound `OC[C@H]1O[C@@H](n2cnc3c(NC4CCCC4)nc(Cl)nc32)[C@H](O)[C@@H]1O` [CCPA, 2-chloro-N6-cyclopentyladenosine], in the experiment with harmaline-induced tremor (CCPA 10-100 μM in microdialysis perfusate), the tremor activity result is recorded as “attenuated; also recorded: reduced tremor activity with a potency comparable to DBS”. Also, in the experiment with harmaline-induced tremor, the tremor following washout entry is recorded as “rebound effect was often observed” and the “time course of depression of tremor” value is “developed slowly over minutes”. The “depression of eEPSPs” value in the experiment on thalamic neurons [3] (1.0 μM) is 75.59±4.98%.

As to `N#Cc1cc2[nH]c(=O)c(=O)[nH]c2cc1[N+](=O)[O-]` [CNQX], the “HFS-induced change of neuronal membrane potential (depolarization / hyperpolarization)” value with thalamic neurons [4] stood at 15.91±4.53 mV. In the case of `Nc1ncnc2c1ncn2[C@@H]1O[C@H](COP(=O)(O)CP(=O)(O)OP(=O)(O)O)[C@@H](O)[C@H]1O` [α,β-MeATP], the “pIC 50” value on Ecto-ATPase is recorded as 4.5. As for 3-deaza-DEA methylester [C3-OMeDEA], the Ki in experiment [2] (read-out: Ki) was 1.5 µM.

Consider `O=C1CCc2cc(OCCCCc3nnnn3C3CCCCC3)ccc2N1` [cilostazol], for which the IC50 in the experiment with adenosine transport (adenosine uptake (Liu et al.)) is 10 µM. In the case of `Cc1cccc(C)c1NC(=O)CN1CCN(CCCC(c2ccc(F)cc2)c2ccc(F)cc2)CC1` [lidoflazine], the inhibition constant (Ki) at adenosine transport (unit inferred) is 0.1 µM. For `O=S(=O)(O)c1cc(N=C=S)ccc1C=Cc1ccc(N=C=S)cc1S(=O)(=O)O` [DIDS, 4,4′diisothiocyanatostilbene-2,2′disulphonec acid], on Rat Parotid Ecto-ATPase, the concentration for half-maximal inhibition (IC50) is 150 µM.
